Data reported in US6602852B1, “Basic peptides and pharmaceutical compositions containing same” (NST NeuroSurvival Technologies, Ltd., priority 1998, dated 2003).

How the values were obtained:
[1] = system: clotting induced by negatively charged phospholipids in normal plasma; conditions: 0.5-50 μM; control clotting time 40 seconds
Experimental: The ability of NST300 compounds to inhibit coagulaton catalyzed by negatively—charged phospholipids was evaluated in a standard coagulation test of the Russell viper venom (RVV) assay. The RVV reagent directly activates factor x present in the plasma, thus promoting prothrombinase complex formation. This reagent is widely used as a standard phospholipid responsive clotting test. (Thiagarajan et al., Blood, 1986; 869-874).
The RVV reagent kit, containing RVV and negatively charged phospholipids, from Gradipore, Australia was used. The reactions were started by mixing 100 μl of RVV reagent, and 100 μl of quality control plasma collected from normal individuals (commercially available from Instrumentation Laboratory, Italy). Clotting time was determined as the time-point beyond which the continuously mixed reaction ingredients in the test tube, could no longer be aspirated with a pasteur pipette. Clotting time was measured independently by two separate researchers.

[2] = system: procoagulant activity of apoptotic HeLa S3 cells; conditions: 0.5 μM
Experimental: In the standard APTT test, clot formation is triggered by recalcification of plasma and addition of cephalin, i.e. negatively-charged phospholipids. Time until clot formation was measured as described in Example 3. […] In the modified APTT test, used in the present study, the addition of negatively-charged phospholipids (cephalin) was replaced by addition of apoptotic cells.
The cultured medium was discarded, and cells that were loosely attached to the growing surface, were collected in PBS, as described in Example 2B. These cells were washed and resuspended in TBS, and were regarded as advanced apoptotic cells. Equal numbers of apoptotic or control non-treated cells (10^5) in a volume of 100 μl, were mixed with 100 μl of 25 mM of CaCl2 and the clotting time was measured. […] Inhibition of their procoagulant activity by NST300 compounds was tested following pre-incubation of apoptotic cells with the different NST300 compounds.
Pre-incubation of equal numbers of apoptotic or control non-treated cells (10^5) with NST300 compounds was for 10 minutes at room temperature in a final volume of 100 μl. The compounds were used at concentration of 0.5 μM. The results can be seen in FIG. 5a.

[3] = system: thrombin generation on apoptotic HeLa cells
Experimental: One of the final steps of both intrinsic and extrinsic pathways of coagulation, is the generation of thrombin from prothrombin. Thrombin is the final protease generated in the sequence of coagulation reaction, and its activity entails conversion of fibrinogen to fibrin, that forms the clot. Generation of thrombin on the pro-coagulant surface of apoptotic cells was assayed (according to Bombeli T. et al., 1997, Blood 89(7), 2429-2442), by determining its activity, using the chromogenic substrate S-2366 (from Chromogenix, Sweden). Samples of pro-coagulant cells (HeLa cells treated with 500 μM of DA for 18 hours) were used for the assay.

Cardiolipin (CL) = system: Cardiolipin (CL)
Experimental: As control, wells were coated with ethanol only. The coated plates were washed 3 times with 100 ul of blocking buffer (PBS containing 0.3% gelatin (Sigma) and 1 mM EDTA) to block non specific binding. A 5 min incubation time was used between each wash. Normal plasma (Ilex, Italy, 84670-11) and Lupus plasma (either from Gradipore, Australia, LAHP-1, or from Biopool, Ventura, Calif.) were prepared according to the producer instruction. The plasma was diluted 1/10 in the blocking buffer and was added to the CL and ethanol coated wells. Binding of different NST 300 compounds to CL was performed by addition of serial dilutions of NST compounds (prepared in the plasma/blocking buffer solution) to the CL or ethanol coated wells. Following 3 hr incubation, the plates were washed twice with PBS/BSA buffer (0.4% bovine serum albumin (BSA) in PBS). For detection of anticardiolipin binding property of the tested plasma, the plates were incubated with a 1/10000 dilution of Peroxidase-conjugated affinity purified Goat anti-human IgG (Jackson Immunoresearch lab.) in PBS/BSA buffer for 1 hour. The plates were then washed 3 times with PBS/BSA buffer, and color reaction was developed by incubation with 100 ul of 0-phenylenediamine (OPD) dihydrochloride (Sigma p-7288) at a concentration of 0.4 mg/ml in 0.05 M phosphate citrate buffer, pH 5.0 supplemented, with 4 ul of 30% hydrogen peroxide (Aldrich) for 10 ml mixture. To detect the level of NST 300 compound that was bound to CL, parallel wells were incubated with streptavidin conugated to OPD (SA-OPD, Jackson Immunoresearch lab.), that specifically recognize the biotinylated NST 300 compound. The resulting colour changes were recorded at […] using a Bio Tek Elx800 Eliza reader.

[4] = system: Cardiolipin (CL) / anti β2GPI
Experimental: Antiphospholipid antibodies (APLA) comprise a family of antibodies characterized by their reactivity with negatively charged phospholipids in vitro. The target or many anti-phospholipid antibodies is either a complex between anionic phospholipid and the plasma protein Apolipoprotein-H (β2GPI) or the protein β2GPI alone bound to PS (McNeil et al., 1990, Matsurra et al., 1994). […] The assay was performed as essentially described above for anti CL ELISA with several modifications. […] Following washes, the wells were incubated for 1 hour with 1/10000 of Peroxidase-conjugated affinity purified rabbit anti goat IgG (Jackson Immunoresearch lab. PA) in PBS/BSA buffer. Washes and development were as described for anti CL ELISA. In the following experiments, CL coated wells were incubated with 1/500 dilution or affinity purified goat anti-human β2GPI in 10% normal plasma (as a source for β2GPI protein and buffering condition).

apoptotic hepatocytes = assay type: in vivo
Experimental: All animals were killed 2 hr after administration of antibody followed by organ removal. Heart, lung and liver were collected.
Formalin fixed paraffin-embedded tissues were sectioned (5 μm) for staining with Hematoxylin/Eosin or other techniques.
Endogenous peroxidase activity was blocked by incubation with 3% H2O2.
After washing with PBS, staining was developed with 3,3-diaminobenzidine tetrahydrochloride (DAB), and counterstained with Hematoxylin.
Liver sections from different lobes were used for detection of stained apoptotic cells compared to normal cells.
The percentage of apoptotic cells in the fields was estimated by evaluating parallel sections stained with Hematoxylin/Eosin. Analysis was performed blindly, since the pathologist performing the histological evaluation was unaware of the assignment of mice to the treatment or control group.

Myristate-KKKKKRFSFKKSFKLSGFSFKKNKKK (SEQUENCE ID NO. 2)-(biotin) [NST302]
increase of clotting time by a factor as compared to control [1]: 3.1
effect on procoagulant effect of apoptotic cells ([2]; FIG. 5a): fully reversing
increase of clotting time by a factor ([2]; apoptotic cells): 2
delay factor of time needed to achieve 50% of thrombin activity ([3]; 25 μM): 2.25
time needed to achieve 50% of thrombin activity ([3]; 25 μM): 4.5 min
rate of thrombin activity and lag time for activating the reaction ([3]; 5-25 μM): delayed
concentration at which inhibition of thrombin generation is observed already ([3]; 5-25 μM tested): 5 µM
concentration at which binding to CL reached saturation (Cardiolipin (CL); CL coated ELISA wells): about 0.3 μM
concentration from which displacement of Lupus plasma binding to CL starts (Cardiolipin (CL); Lupus plasma from Gradipore): 0.1 µM
concentration of maximum effect of displacement of Lupus plasma from CL (Cardiolipin (CL); Lupus plasma from Gradipore): 2.5 µM
concentration of complete inhibition of anti β2GPI binding to CL ([4]; 10% normal plasma): 50 µM
concentrations giving significant displacement of anti β2GPI from CL ([4]; 10% normal plasma): 0.1 to 50 µM
inhibition of anti β2GPI binding to CL ([4]; FIG. 6c): Complete inhibition
staining in normal hepatocytes (apoptotic hepatocytes; animals injected with NST302 only): never observed
staining of liver in anti-Fas treated mice (apoptotic hepatocytes; intravenous, 5 μM, avidin biotin peroxidase detection): observed at cytoplasma and cytoplasmatic border of apoptotic hepatocytes
